# Entries after “also recorded” stand apart in the source; their conditions may differ. Non-standard residues stand in square brackets, D forms with d. Residues, ends and D or L forms follow the SMILES beside them.
# Experiments:
# LDLr-null mice = assay: plasma lipoprotein and lipoprotein cholesterol profiles (FPLC of pooled plasma); assay type: in vivo, mouse; details: 2 weeks oral ~25 mg/kg/day
# Method: Effect of cyclic peptides on plasma lipoprotein and lipoprotein cholesterol profiles: Pooled plasma (240 μL total, 30 μL from each, n=8 mice per group) from the two-week blood draw was used for fast protein liquid chromatography (FPLC) analysis. Lipoproteins were separated by using 3 Superdex 200 10/30 columns connected in series (GE Healthcare). The plasma was centrifuged at 11,000 rpm for 10 min at room temperature to remove particulates (floating material was gently mixed into liquid before removing the supernatant for FPLC injection). 200 μL of the pooled plasma was injected on the system eluted with 10 mM tris-HCl buffer, pH 7.4, containing 1 mM EDTA and 150 mM NaCl; a flow rate of 0.5 ml/min and fraction size of 0.5 mL were used. Total cholesterol in the FPLC fractions was measured using the Amplex® red cholesterol assay kit (No. A12216, Life Technologies) according to the manufacturer's instructions. 20 μL of selected HDL fractions (as indicated in FIG. 6) were mixed with 4 μL of 6× native loading buffer (375 mM tris, pH 6.8, 0.06% bromophenol, 60% glycerol), out of which 20 μL was applied to non-denaturing gel electrophoresis and then immunoblotted for mouse apoA-I as described above.
# [1] = system: mouse macrophage J774 cells; assay: cholesterol efflux from mouse macrophage cells incubated with peptide-treated human plasma; assay type: cell-based
# Method: Selected cyclic D,L-α-peptides were further evaluated for their ability to promote cellular cholesterol efflux from mouse macrophage J774 cells. A main factor for HDL anti-atherogenicity is its role in reverse cholesterol transport, of which cellular cholesterol efflux is a critical component. To measure efflux mediated by the cyclic D,L-α-peptides, cholesterol-laden cells were incubated with peptide-treated plasma for 4 h, after which the level of cholesterol effluxed to the media was measured as described in Sankaranarayanan et al., J. Lipid Res. 52, 2332-2340, 2011.
# Preparation of labeling medium: These procedures were modified from that reported in Sankaranarayanan et al., J. Lipid Res. 52, 2332-2340, 2011. The labeling medium was prepared by complexing the unlabeled cholesterol and BODIPY-cholesterol (20% of the total cholesterol) with methyl-β-cyclodextrin (CD) at a molar ratio of 1:40 (total cholesterol/CD). Unlabeled cholesterol and BODIPY-cholesterol were dissolved in chloroform and dried in a round bottom flask by rotor-evaporation in the dark to form a thin film. The cholesterol mixture was solubilized by adding 20 mM CD in MEM-HEPES buffer. The suspension was sonicated in a water bath (37° C.) for at 1 h, stirred at 37° C. for 3 h, filtered using a 0.45-μm syringe filter, and diluted with an equal volume of MEM-HEPES buffer containing 4 μg/mL Sandoz ACAT (acyl-CoA:cholesterol acyltransferase) inhibitor (Sigma). The final concentrations of BODIPY-cholesterol, unlabeled cholesterol, CD, and ACAT inhibitor in the labeling medium were 0.025 mM, 0.1 mM, 10 mM, and […], respectively.
# Preparation of efflux medium: Just before the initiation of the efflux assays, the human plasma frozen at −80° C. was thawed, and 80 μL of plasma was incubated with 20 μL of cyclic peptide stocks (peptide stocks were 1-3 mg/mL in 10% sucrose) or the vehicle (10% sucrose) at 37° C. for 30 min. The treated plasma samples (100 μL) were then incubated with 25% PEG 8000 solution in 200 mM glycine buffer, pH 8.5 (40 μL) to precipitate apoB-containing lipoproteins (Asztalos et al., J. Lipid Res. 46, 2246-2253, 2005). After a 15-min incubation, the precipitate was removed by high-speed centrifugation (13,000 rpm, 10 min, 4° C.), and the supernatant (60 μL) was immediately diluted with MEM-HEPES buffer (1.5 mL) to give ˜2% whole plasma. This solution, containing the peptide remodeled-HDL lipoprotein fraction as cholesterol acceptors, was used as the efflux medium.
# Cholesterol efflux from mouse macrophage cells: Mouse macrophage J774A.1 cells (TIB-67; American Type Culture Collection, Manassas, Va.) were seeded in 12-well culture plate at 3×10^5 cells/mL and cultured to 80-90% confluency in DMEM with 10% FBS at 5% CO2. Cells were rinsed twice with MEM-HEPES, incubated for 1 h with 0.25 ml of labeling medium containing CD/BODIPY-cholesterol/unlabeled cholesterol and 2 μg/mL Sandoz ACAT inhibitor, followed by washing twice with MEM-HEPES. The cholesterol-laden cells were equilibrated for 18 h in DMEM containing 5% LPDS, […] Sandoz ACAT inhibitor, and 0.3 mM Cpt-cAMP. After equilibration, the cells were washed twice with MEM-HEPES and incubated with 0.25 mL of efflux media for 4 h. At the end of the incubation time, the efflux media was removed and centrifuged (1200 rpm, 10 min) to remove floating cells, and the fluorescence intensity of 100 μL cell-free media was recorded using a Tecan GENios plate reader (excitation 485 nm, emission 535 nm). The obtained signals were background subtracted using the signal from unlabeled cells. The cell monolayers were rinsed twice with ice-cold MEM-HEPES and solubilized with 0.25 mL 1% cholic acid by shaking on a plate shaker for at least 4 h at room temperature; then the fluorescence intensity of 100 μL cell lysate was recorded and background subtracted using the signal from unlabeled cell lysate. […]
# [2] = listed as c[wLwReQeR], 25 mg/kg/day
smiles,measurement,setting,value
"CC(C)C[C@@H]1NC(=O)[C@@H](Cc2c[nH]c3ccccc23)NC(=O)[C@H](CCCNC(=N)N)NC(=O)[C@@H](CCC(=O)O)NC(=O)[C@H](CCC(N)=O)NC(=O)[C@@H](CCC(=O)O)NC(=O)[C@H](CCCNC(=N)N)NC(=O)[C@@H](Cc2c[nH]c3ccccc23)NC1=O [SEQ ID NO:1, c[wLwReQeR]] (cyclo([dW]L[dW]R[dE]Q[dE]R))",HDL particle size (FPLC lipoprotein profile),"LDLr-null mice; listed as 1, 25 mg/kg/day",remodeled in favor of the smaller HDL particle sizes
same,VLDL and LDL levels (FPLC lipoprotein profile),"LDLr-null mice; listed as 1, 25 mg/kg/day",reduced levels of VLDL and LDL
same,HDL particle size (FPLC lipoprotein profile),LDLr-null mice; [2],modest shift to smaller (later eluting) particles
same,VLDL and LDL levels (FPLC lipoprotein profile),LDLr-null mice; [2],decreases in the VLDL and LDL levels
same,HDL levels (FPLC lipoprotein profile),LDLr-null mice; vs vehicle,comparable for both groups
same,toxicity based on the cellular morphology and density,[1]; J774 cells in the efflux assay,did not appear to be toxic
same,promotion of cellular cholesterol efflux (in words),"[1]; J774 cells, 2% apoB-depleted peptide-treated human plasma, 4 h, FIG. 2b",clear concentration dependency; also recorded: only marginally less effective than the α-helical apoA-I mimetic 4F

# — US10092620B2, “Uses of cyclic peptides for treating and preventing atherosclerosis” (THE SCRIPPS RESEARCH INSTITUTE, priority 2013, dated 2018)
